Experimental data from ChEMBL document CHEMBL4376834, “Discovery of 4H-Chromen-4-one Derivatives as a New Class of Selective Rho Kinase (ROCK) Inhibitors, which Showed Potent Activity in ex Vivo Diabetic Retinopathy Models” (J Med Chem, 2019).

Key:
[1] = Protein binding in monkey plasma at 1 uM incubated incubated for 5 hrs under shaking conditions by LC-MS analysis; assay type: ADME, cell-free, Macaca mulatta; conditions: rhesus monkey, read-out: PPB (converted)
[2] = molecular target: Tyrosine-protein kinase ABL1 (Homo sapiens, UniProt P00519, H396P); test: Inhibition of human recombinant ABL1 H396P mutant (27 to end residues) using EAIYAAPFAKKK as substrate incubated for 40 mins in presence of [gamma-33P]ATP by radiometry scintillation counting analysis assay
[3] = molecular target: NUAK family SNF1-like kinase 1 (Homo sapiens, UniProt O60285); test: Inhibition of human recombinant ARK5 (2 to end residues) using KKKVSRSGLYRSP as substrate incubated for 40 mins in presence of [gamma-33ATP] by radiometric scintillation counting analysis
[4] = molecular target: Calcium/calmodulin-dependent protein kinase type 1B (Homo sapiens, UniProt Q6P2M8); test: Inhibition of recombinant full length human CaMK1beta using KKLRRTLSFAEP as substrate incubated for 40 mins in presence of [gamma-33ATP] by radiometric scintillation counting analysis
[5] = molecular target: Cyclin-dependent kinase 5/CDK5 activator 1 (Homo sapiens, UniProt Q00535); test: Inhibition of recombinant full length human CDK5/p35 using histone H1 as substrate incubated for 40 mins in presence of [gamma-33ATP] by radiometric scintillation counting analysis; assay type: protein-complex assay
[6] = molecular target: Serine/threonine-protein kinase 17B (Homo sapiens, UniProt O94768); test: Inhibition of recombinant full length human DRAK2 using KKRPQRRYSNVF as substrate at 120 mins in presence of [gamma-33ATP] by radiometric scintillation counting analysis
[7] = molecular target: Protein kinase C iota type (Homo sapiens, UniProt P41743); test: Inhibition of recombinant full-length human PKCiota using ERMRPRKRQGSVRR as substrate incubated for 40 mins in presence of [gamma33P]ATP by radiometric scintillation counting analysis
[8] = molecular target: Muscle, skeletal receptor tyrosine-protein kinase (Homo sapiens, UniProt O15146); test: Inhibition of recombinant human MUSK (530 to end residues) using myelin basic protein as substrate measured after 40 mins in presence of [gamma33P]ATP by radiometric scintillation counting analysis
[9] = molecular target: Myosin light chain kinase 2, skeletal/cardiac muscle (Homo sapiens, UniProt Q9H1R3); test: Inhibition of recombinant full length human MYLK2 using KKLNRTLSFAEPG as substrate measured after 40 mins in presence of [gamma33P]ATP by radiometric scintillation counting analysis
[10] = molecular target: Ribosomal protein S6 kinase beta-1 (Homo sapiens, UniProt P23443, T412E); test: Inhibition of recombinant human p70S6K T412E mutant (1 to 421 residues) using KKRNRTLTV as substrate measured after 40 mins in presence of [gamma33P]ATP by radiometric scintillation counting analysis
[11] = molecular target: FKBP12A/mTOR (Homo sapiens, UniProt P42345+P62942); test: Inhibition of recombinant full length human mTOR/FKBP12 measured after 40 mins in presence of [gamma33P]ATP by radiometric scintillation counting analysis; assay type: protein-complex assay
[12] = molecular target: Hepatocyte growth factor receptor (Homo sapiens, UniProt P08581, D1228N); test: Inhibition of recombinant human MET A1209G/V1290L/D1246N triple mutant (974 to end residues) using KKKGQEEEYVFIE as substrate incubated for 40 mins in presence of [gamma-33ATP by radiometric scintillation counting analysis
[13] = molecular target: Platelet-derived growth factor receptor beta (Homo sapiens, UniProt P09619); test: Inhibition of human PDGFRbeta (557 to end residues) using poly(Glu, Tyr) 4:1 as substrate measured after 40 mins in presence of [gamma33P]ATP by radiometric scintillation counting analysis
[14] = molecular target: Receptor tyrosine-protein kinase erbB-2 (Homo sapiens, UniProt P04626, G778D); test: Inhibition of recombinant human ERBB2 G778D (676 to end residues) using poly(Glu, Tyr) 4:1 as substrate after 40 mins in presence of [gamma-33ATP] by radiometric scintillation counting analysis
[15] = molecular target: Fibroblast growth factor receptor 2 (Homo sapiens, UniProt P21802, N549H); test: Inhibition of recombinant human FGFR2 N549H mutant (456 to 765 residues) using GGEEEEYFELVKK as substrate after 40 mins in presence of [gamma-33ATP] by radiometric scintillation counting analysis
[16] = molecular target: Glycogen synthase kinase-3 alpha (Homo sapiens, UniProt P49840); test: Inhibition of human GSK-3alpha S449A mutant (2 to end residues) using YRRAAVPPSPSLSR as substrate after 40 mins by [gamma-33ATP] radiometric scintillation counting analysis
[17] = molecular target: Serine/threonine-protein kinase PLK3 (Homo sapiens, UniProt Q9H4B4); test: Inhibition of recombinant human Plk3 (19 to 301 residues) using casein as substrate incubated for 40 mins in presence of [gamma33P]ATP by radiometric scintillation counting analysis
[18] = molecular target: Proto-oncogene tyrosine-protein kinase receptor Ret (Homo sapiens, UniProt P07949, V804L); test: Inhibition of recombinant human Ret V804L mutant (658 to end residues) using KKKVSRSGLYRSP as substrate incubated for 40 mins in presence of [gamma33P]ATP by radiometric scintillation counting analysis
[19] = molecular target: Ribosomal protein S6 kinase alpha-1 (Homo sapiens, UniProt Q15418); test: Inhibition of recombinant full length human Rsk1 using KKKNRTLSVA as substrate incubated for 40 mins in presence of [gamma33P]ATP by radiometric scintillation counting analysis
[20] = molecular target: Ribosomal protein S6 kinase alpha-2 (Homo sapiens, UniProt Q15349); test: Inhibition of recombinant full length human Rsk3 using KKKNRTLSVA as substrate incubated for 40 mins in presence of [gamma33P]ATP by radiometric scintillation counting analysis
[21] = molecular target: Mitogen-activated protein kinase 11 (Homo sapiens, UniProt Q15759); test: Inhibition of recombinant human full length SAPK2b using myelin basic protein as substrate incubated for 40 mins in presence of [gamma33P]ATP by radiometric scintillation counting analysis
[22] = molecular target: Serine/threonine-protein kinase SIK1 (Homo sapiens, UniProt P57059); test: Inhibition of recombinant human SIK (1 to 281 residues) using AMARAASAAALARas substrate incubated for 40 mins in presence of [gamma33P]ATP by radiometric scintillation counting analysis
[23] = molecular target: SRSF protein kinase 2 (Homo sapiens, UniProt P78362); test: Inhibition of recombinant human SRPK2 (46 to end residues) using RSRSRSRSRSRSRSR as substrate incubated for 40 mins in presence of [gamma33P]ATP by radiometric scintillation counting analysis
[24] = molecular target: Serine/threonine-protein kinase TAO3 (Homo sapiens, UniProt Q9H2K8); test: Inhibition of recombinant human TAO3 N47S mutant (1 to 411 residues) using myelin basic protein as substrate incubated for 40 mins in presence of [gamma33P]ATP by radiometric scintillation counting analysis
[25] = molecular target: Phosphatidylinositol 4-phosphate 3-kinase C2 domain-containing subunit alpha (Homo sapiens, UniProt O00443); test: Inhibition of human PI3KC2

Sequence of Glycogen synthase kinase-3 alpha (P49840 whole entry, the tested form may be a part): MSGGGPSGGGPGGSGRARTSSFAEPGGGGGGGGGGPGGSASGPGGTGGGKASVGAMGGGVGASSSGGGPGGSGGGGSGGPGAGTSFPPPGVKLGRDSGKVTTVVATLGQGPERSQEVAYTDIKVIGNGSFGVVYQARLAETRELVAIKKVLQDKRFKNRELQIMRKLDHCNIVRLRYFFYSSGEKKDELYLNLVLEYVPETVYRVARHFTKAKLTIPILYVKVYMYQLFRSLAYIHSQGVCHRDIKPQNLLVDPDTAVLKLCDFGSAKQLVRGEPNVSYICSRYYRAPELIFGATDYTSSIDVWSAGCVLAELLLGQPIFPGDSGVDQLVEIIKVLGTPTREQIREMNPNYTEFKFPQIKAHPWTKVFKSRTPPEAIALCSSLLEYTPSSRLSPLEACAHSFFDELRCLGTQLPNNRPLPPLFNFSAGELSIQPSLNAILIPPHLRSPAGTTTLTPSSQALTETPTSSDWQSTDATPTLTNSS
Sequence of Myosin light chain kinase 2, skeletal/cardiac muscle (Q9H1R3 whole entry, the tested form may be a part): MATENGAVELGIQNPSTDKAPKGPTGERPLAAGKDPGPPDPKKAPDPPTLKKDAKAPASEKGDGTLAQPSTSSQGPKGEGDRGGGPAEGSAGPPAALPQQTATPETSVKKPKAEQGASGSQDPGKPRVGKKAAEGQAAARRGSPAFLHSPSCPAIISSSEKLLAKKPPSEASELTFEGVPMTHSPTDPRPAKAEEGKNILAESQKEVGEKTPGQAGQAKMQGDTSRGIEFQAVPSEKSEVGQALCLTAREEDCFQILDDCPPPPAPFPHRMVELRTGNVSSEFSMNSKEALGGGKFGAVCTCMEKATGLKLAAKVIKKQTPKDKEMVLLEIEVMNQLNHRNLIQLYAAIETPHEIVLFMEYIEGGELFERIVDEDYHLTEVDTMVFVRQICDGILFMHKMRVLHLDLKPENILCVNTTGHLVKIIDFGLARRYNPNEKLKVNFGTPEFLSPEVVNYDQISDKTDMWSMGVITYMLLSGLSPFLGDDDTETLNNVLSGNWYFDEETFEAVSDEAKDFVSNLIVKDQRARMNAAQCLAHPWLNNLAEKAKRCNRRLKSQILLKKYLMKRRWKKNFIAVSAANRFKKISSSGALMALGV
Sequence of Serine/threonine-protein kinase 17B (O94768 whole entry): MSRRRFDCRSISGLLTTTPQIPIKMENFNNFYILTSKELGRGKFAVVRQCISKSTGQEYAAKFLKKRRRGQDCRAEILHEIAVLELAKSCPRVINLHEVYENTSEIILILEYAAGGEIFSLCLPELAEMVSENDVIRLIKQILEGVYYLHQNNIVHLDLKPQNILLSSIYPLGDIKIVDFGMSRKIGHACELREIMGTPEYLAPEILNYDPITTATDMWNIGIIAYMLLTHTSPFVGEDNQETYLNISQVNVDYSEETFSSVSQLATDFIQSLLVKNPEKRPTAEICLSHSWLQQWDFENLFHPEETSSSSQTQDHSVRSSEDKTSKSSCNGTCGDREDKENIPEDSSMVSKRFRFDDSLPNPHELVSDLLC
Sequence of Mitogen-activated protein kinase 11 (Q15759 whole entry, the tested form may be a part): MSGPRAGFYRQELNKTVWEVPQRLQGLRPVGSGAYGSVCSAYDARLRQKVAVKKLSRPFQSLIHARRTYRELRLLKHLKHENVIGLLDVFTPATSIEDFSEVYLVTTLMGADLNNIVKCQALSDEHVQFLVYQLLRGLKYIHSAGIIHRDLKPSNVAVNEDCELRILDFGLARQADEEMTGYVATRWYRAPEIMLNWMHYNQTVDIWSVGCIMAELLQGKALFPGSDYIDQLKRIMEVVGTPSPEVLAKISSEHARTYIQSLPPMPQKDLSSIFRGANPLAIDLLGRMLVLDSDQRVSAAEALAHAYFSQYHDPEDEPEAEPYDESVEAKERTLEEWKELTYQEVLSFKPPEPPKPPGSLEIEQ
Sequence of Receptor tyrosine-protein kinase erbB-2 (P04626 23-1255 G778D limits assumed): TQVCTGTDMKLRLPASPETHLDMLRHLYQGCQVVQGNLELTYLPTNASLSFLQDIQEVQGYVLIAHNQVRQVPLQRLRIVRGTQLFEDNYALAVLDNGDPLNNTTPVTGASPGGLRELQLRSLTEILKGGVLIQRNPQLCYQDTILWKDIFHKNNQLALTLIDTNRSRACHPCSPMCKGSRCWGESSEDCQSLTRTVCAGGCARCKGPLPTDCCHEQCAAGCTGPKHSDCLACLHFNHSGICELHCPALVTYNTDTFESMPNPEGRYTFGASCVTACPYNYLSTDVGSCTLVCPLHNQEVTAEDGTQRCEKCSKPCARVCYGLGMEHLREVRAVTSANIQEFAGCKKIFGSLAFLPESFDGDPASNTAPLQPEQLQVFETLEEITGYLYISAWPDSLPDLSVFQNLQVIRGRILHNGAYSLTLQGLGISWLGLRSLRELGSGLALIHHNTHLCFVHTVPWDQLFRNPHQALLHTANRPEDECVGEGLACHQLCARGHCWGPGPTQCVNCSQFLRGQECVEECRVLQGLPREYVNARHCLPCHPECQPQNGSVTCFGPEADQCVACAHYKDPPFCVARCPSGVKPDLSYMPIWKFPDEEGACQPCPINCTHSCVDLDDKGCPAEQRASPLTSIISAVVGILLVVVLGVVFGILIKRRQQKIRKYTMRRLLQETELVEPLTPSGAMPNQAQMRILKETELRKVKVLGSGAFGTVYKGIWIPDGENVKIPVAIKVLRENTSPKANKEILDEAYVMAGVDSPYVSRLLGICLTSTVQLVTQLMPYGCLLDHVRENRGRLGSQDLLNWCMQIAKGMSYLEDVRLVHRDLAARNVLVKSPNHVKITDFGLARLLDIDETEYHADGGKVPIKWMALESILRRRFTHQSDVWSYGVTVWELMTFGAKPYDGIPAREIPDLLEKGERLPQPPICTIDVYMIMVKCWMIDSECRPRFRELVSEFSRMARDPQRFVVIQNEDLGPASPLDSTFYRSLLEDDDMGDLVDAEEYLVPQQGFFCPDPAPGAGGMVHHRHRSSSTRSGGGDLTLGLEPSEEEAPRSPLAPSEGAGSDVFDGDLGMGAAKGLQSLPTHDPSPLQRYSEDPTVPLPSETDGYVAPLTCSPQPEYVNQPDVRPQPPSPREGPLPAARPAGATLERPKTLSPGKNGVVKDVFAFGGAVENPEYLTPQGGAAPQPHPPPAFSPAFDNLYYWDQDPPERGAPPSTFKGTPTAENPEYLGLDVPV
Sequence of Fibroblast growth factor receptor 2 (P21802 22-821 N549H limits assumed): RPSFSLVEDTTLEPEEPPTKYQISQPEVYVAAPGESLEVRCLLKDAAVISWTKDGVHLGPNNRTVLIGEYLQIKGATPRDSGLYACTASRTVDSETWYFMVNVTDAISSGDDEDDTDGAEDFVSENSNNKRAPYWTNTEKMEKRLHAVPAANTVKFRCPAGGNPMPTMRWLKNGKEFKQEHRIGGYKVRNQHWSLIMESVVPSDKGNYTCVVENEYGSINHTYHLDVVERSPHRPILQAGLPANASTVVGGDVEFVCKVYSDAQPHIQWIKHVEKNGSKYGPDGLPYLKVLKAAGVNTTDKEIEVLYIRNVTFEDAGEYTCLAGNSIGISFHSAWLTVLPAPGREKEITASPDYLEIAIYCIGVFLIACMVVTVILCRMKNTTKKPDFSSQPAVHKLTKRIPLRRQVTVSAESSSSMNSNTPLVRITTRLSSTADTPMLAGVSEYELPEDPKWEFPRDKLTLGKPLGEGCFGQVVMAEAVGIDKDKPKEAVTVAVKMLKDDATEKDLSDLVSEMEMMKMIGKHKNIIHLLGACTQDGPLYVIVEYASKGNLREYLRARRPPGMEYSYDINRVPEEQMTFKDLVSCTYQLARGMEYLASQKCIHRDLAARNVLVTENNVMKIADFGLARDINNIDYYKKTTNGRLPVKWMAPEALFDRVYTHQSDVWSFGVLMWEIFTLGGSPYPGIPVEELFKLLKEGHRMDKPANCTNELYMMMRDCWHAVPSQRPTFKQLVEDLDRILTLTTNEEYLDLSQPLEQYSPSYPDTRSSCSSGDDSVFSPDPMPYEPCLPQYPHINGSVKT
Sequence of Serine/threonine-protein kinase SIK1 (P57059 whole entry, the tested form may be a part): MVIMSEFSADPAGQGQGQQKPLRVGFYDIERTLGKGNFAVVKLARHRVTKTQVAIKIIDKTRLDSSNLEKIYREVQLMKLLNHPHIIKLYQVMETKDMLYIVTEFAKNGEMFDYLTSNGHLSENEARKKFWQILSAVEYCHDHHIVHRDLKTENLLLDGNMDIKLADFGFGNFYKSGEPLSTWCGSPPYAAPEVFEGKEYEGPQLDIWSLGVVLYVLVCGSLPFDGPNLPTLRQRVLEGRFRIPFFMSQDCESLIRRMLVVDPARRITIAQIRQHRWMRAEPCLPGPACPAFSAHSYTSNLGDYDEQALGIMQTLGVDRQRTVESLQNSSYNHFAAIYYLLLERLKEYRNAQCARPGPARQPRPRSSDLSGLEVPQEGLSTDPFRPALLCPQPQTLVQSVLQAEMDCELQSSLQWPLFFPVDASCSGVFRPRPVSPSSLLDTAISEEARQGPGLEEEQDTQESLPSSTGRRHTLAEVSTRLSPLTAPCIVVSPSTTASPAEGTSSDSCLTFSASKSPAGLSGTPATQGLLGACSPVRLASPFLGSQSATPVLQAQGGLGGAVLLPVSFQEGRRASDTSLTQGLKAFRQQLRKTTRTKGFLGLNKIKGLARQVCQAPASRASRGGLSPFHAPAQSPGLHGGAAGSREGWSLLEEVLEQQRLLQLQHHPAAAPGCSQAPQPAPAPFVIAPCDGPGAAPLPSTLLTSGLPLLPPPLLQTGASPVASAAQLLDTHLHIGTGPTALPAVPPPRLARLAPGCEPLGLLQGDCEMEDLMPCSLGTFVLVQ
Sequence of Calcium/calmodulin-dependent protein kinase type 1B (Q6P2M8 whole entry): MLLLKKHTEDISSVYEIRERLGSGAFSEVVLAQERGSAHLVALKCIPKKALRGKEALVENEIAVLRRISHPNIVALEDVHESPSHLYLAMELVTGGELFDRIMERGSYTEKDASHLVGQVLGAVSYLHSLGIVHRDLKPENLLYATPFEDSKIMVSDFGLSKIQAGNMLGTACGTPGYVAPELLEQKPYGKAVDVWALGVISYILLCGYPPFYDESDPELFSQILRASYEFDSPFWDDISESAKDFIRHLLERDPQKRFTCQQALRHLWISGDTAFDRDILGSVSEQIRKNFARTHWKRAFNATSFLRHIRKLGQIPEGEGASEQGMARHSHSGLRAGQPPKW

CN(C)c1ccc(C(=O)Nc2cccc(NC(=O)COc3ccc4c(=O)ccoc4c3)c2)cc1
fraction unbound at 5 h, 1 µM [1]: 0.002 | IC50 [2]: > 10 µM | IC50 [3]: > 10 µM | IC50 [4]: > 10 µM | IC50 [5]: > 10 µM | IC50 [6]: > 10 µM | IC50 [7]: > 10 µM | IC50 [8]: > 10 µM | IC50 [9]: > 10 µM | IC50 [10]: > 10 µM | IC50 [11]: > 10 µM | IC50 [12]: > 10 µM | IC50 [13]: > 10 µM | IC50 [14]: > 10 µM | IC50 [15]: > 10 µM | IC50 [16]: > 10 µM | IC50 [17]: > 10 µM | IC50 [18]: > 10 µM | IC50 [19]: > 10 µM | IC50 [20]: > 10 µM | IC50 [21]: > 10 µM | IC50 [22]: > 10 µM | IC50 [23]: > 10 µM | IC50 [24]: > 10 µM | IC50 [25]: > 10 µM
